Measured values: patent US20220400680A1, “USE OF ACYLCYANAMIDES OR SALTS THEREOF FOR REGULATING PLANT GROWTH” (Alzchem Trostberg GmbH, priority 2019, published 2022)

How the values were obtained:
[1] = system: Table apple, type Zabergäu-Renette (C2); assay: Greenhouse test, cut apple branches C2 dipped in test solution, bud development stage; assay type: in vivo, Malus domestica; set-up: key to Bud development stage, apple branches C2: Stage 0: Buds unchanged; Stage 1: Buds slightly swollen, first green tips visible; Stage 2: strongly swollen, green buds; Stage 3: Buds before breaking open, leaf or flower root already visible; Stage 4: Flower buds fully developed, but still closed, white petals already visible. In the case of the grapevine, stage 4 was the unfolding of the first leaves; Stage 5: Flowers fully open or, in the case of grapevine, unfolding of the flower roots (“Gescheine”) on the fully leafed sprouts
Method in brief: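 Cut branches held in water jars in a greenhouse at about 22° C. under natural light after dipping in aqueous test solution: 0.15 mol substance (0.075 mol for bis-cyanamides) plus 0.15 g BreakThru OE-446 per 500 g. Bud development scored on a stage scale from closed buds to fully open flowers.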

[2] = system: table grapes types Bordon AR and Hammar AR; assay: Field test E3 table grapes India, bud burst; set-up: species or system Vitis vinifera; conditions: in vivo
Description: Three sections of a table grape plantation in India with types Bordon AR and Hammar AR were treated with the following spray mixtures during the dormancy phase:
E3-0: 600 liters per hectare of water with an addition of 0.1% Break-Thru® OE-446 E3-1: 600 liters per hectare of the spray mixture from example D-1 E3-18: 600 liters per hectare of the spray mixture from example D-18
As a result, the grapevine sprouts were evenly wetted.
After 30 and 45 days, respectively, bud burst was recorded numerically.
Budding means number of buds that have developed at least one leaf after n days, based on the total number of buds on the sprouts at time n=0 days (day of application of spray mixture).

SMILES: CC(=O)NC#N.[Na] [Example A-1, Sodium Acetylcyanamide]
- Bud development stage, apple branches C2 ([1]; T1 (14 d), 0.15 mol (A-14, A-15: 0.075 mol) per 500 g solution): 0
- Bud development stage, apple branches C2 ([1]; T2 (16 d)): 0
- Bud development stage, apple branches C2 ([1]; T3 (21 d)): 1
- Bud development stage, apple branches C2 ([1]; T4 (27 d)): 3
- Bud development stage, apple branches C2 ([1]; T5 (36 d)): 5
- Bud development stage, apple branches C2 ([1]; T6 (56 d)): 5
- Dormancy-breaking effect according to the definition, apple C2 ([1]; stage 4 reached or exceeded after 36 days vs negative control): dormancy-breaking effect
- Effectiveness compared with prior art treatment with cyanamide [2]: at least as effective as the prior art treatment with cyanamide
